The series concerns the target T1, Broad substrate specificity ATP-binding cassette transporter ABCG2 (Homo sapiens, UniProt Q9UNQ0).
T1 sequence (Q9UNQ0 whole entry): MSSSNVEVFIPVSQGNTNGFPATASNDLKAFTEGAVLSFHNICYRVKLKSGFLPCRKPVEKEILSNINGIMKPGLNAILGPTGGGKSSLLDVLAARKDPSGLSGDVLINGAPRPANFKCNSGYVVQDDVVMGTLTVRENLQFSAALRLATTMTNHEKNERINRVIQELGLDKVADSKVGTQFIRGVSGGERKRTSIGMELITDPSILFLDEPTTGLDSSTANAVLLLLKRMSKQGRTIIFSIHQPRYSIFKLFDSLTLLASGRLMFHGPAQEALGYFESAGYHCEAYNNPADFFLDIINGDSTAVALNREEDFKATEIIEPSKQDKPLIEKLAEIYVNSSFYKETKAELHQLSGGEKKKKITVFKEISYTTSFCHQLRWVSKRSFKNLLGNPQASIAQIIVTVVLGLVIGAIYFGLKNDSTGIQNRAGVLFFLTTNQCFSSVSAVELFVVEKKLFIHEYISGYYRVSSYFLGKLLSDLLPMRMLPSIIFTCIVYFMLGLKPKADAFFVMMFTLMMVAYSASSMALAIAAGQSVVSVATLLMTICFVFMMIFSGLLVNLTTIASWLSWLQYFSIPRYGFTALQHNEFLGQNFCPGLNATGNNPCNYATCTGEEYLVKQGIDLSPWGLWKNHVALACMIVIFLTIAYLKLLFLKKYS
Description: TP_TRANSPORTER: efflux in BCRP-expressing MCF-7 cells. The format is functional, cell-based. To be noted: mcf7.

Structures are written as SMILES.

As to `CCOc1ccc(-c2nc3cc(-c4nc5cc(N6CCN(C)CC6)ccc5[nH]4)ccc3[nH]2)cc1`, the Activity result is “substrate [+]”.
